Assay results published in US5663331A, “Cephalosporin compounds” (Il-Dong Pharm. Co., Ltd., priority 1992, dated 1997).
Converted amounts (≈) assume the structure as drawn.

Experiments:
Type in all cases: cell-based
[1] = system: Bacillus subtilis ATCC 6633; assay: MIC, two-fold dilution method, Bacillus subtilis ATCC 6633; settings: 10^6 CFU per ml, 37° C., 18 to 20 hours; for Antibacterial Activity (MIC): Muller Hinton Broth; for MIC: ATCC6633, Muller Hinton Broth, read-out: Antibacterial Activity (MIC)
Method: (§1) In order to illustrate the usefulness of the invented compounds, the minimal inhibitory concentrations-(MIC) thereof against standard strains were determined and compared with Cefotaxime, a known compound. Also, the in vitro antibacterial activity was determined by a two-fold dilution method as described below: That is, the two-fold serial dilutions of the compound were made and dispersed in Muller Hinton Broth medium. Standard test strain which had the 10^6 CFU per ml was inoculated on the medium, and was incubated at 37° C. for 18 to 20 hours.

[2] = system: Staphylococcus aureus ATCC 65389; assay: MIC, two-fold dilution method, Staphylococcus aureus ATCC 65389; settings: 10^6 CFU per ml, 37° C., 18 to 20 hours; for Antibacterial Activity (MIC): Muller Hinton Broth; for MIC: ATCC65389, Muller Hinton Broth, read-out: Antibacterial Activity (MIC)
Method: as §1

[3] = system: Staphylococcus epidermidis ATCC 12228; assay: MIC, two-fold dilution method, Staphylococcus epidermidis ATCC 12228; settings: 10^6 CFU per ml, 37° C., 18 to 20 hours; for Antibacterial Activity (MIC): Muller Hinton Broth; for MIC: ATCC12228, Muller Hinton Broth, read-out: Antibacterial Activity (MIC)
Method: as §1

[4] = system: Streptococcus faecalis ATCC 10541; assay: MIC, two-fold dilution method, Streptococcus faecalis ATCC 10541; settings: 10^6 CFU per ml, 37° C., 18 to 20 hours; for Antibacterial Activity (MIC): Muller Hinton Broth; for MIC: Enterococcus faecalis, ATCC10541, Muller Hinton Broth, read-out: Antibacterial Activity (MIC)
Method: as §1

[5] = system: Pseudomonas aeurginosa NCTC 10490; assay: MIC, two-fold dilution method, Pseudomonas aeurginosa NCTC 10490; settings: 10^6 CFU per ml, 37° C., 18 to 20 hours; for Antibacterial Activity (MIC): Muller Hinton Broth; for MIC: NCTC10490, Muller Hinton Broth, read-out: Antibacterial Activity (MIC)
Method: as §1

[6] = system: Klebsiella pneumoniae ATCC 10031; assay: MIC, two-fold dilution method, Klebsiella pneumoniae ATCC 10031; settings: 10^6 CFU per ml, 37° C., 18 to 20 hours; for MIC: ATCC10031, Muller Hinton Broth, read-out: Antibacterial Activity (MIC); for Antibacterial Activity (MIC): Muller Hinton Broth
Method: as §1

Antibacterial Activity (MIC) [1] [µg/mL]	Antibacterial Activity (MIC) [2] [µg/mL]	Antibacterial Activity (MIC) [3] [µg/mL]	Antibacterial Activity (MIC) [4] [µg/mL]	Antibacterial Activity (MIC) [5] [µg/mL]	MIC [1] [µg/mL]	MIC [2] [µg/mL]	MIC [3] [µg/mL]	MIC [4] [µg/mL]	MIC [5] [µg/mL]	MIC [6] [µg/mL]	Antibacterial Activity (MIC) [6] [µg/mL]	Structure (SMILES)
0.1	0.2	0.2	0.2	1.56	–	–	–	–	–	–	–	CO/N=C(\C(=O)NC1C(=O)N2C(C(=O)[O-])=C(CSc3cc[n+](C)c4cc(-n5cnc(C)c5)c(F)cc34)CSC12)c1csc(N)n1 (centres unmarked) [Compound I-18, 7-[(Z)-2-(2-aminothiazol-4-yl)-2-(methoxyimino)acetamido]-3-[1-methyl-6-fluoro-7-(4-methylimidazolyl)quinolinium-4-yl]thiomethyl-3-cephem-4-carboxylate]
–	–	–	–	–	0.2 (≈ 0.266 µM)	0.2 (≈ 0.266 µM)	0.2 (≈ 0.266 µM)	0.2 (≈ 0.266 µM)	0.78 (≈ 1.04 µM)	0.39 (≈ 0.518 µM)	–	C=CCO/N=C(\C(=O)NC1C(=O)N2C(C(=O)[O-])=C(CSc3cc[n+](C4CC4)c4cc(N5CCN(CC)CC5)c(F)cc34)CSC12)c1csc(N)n1 (centres unmarked) [Compound I-27]
0.39	0.2	0.2	0.2	1.56	–	–	–	–	–	–	0.78	C=CCO/N=C(\C(=O)NC1C(=O)N2C(C(=O)[O-])=C(CSc3cc[n+](C4CC4)c4cc(N5CCNCC5C)c(F)cc34)CS[C@H]12)c1csc(N)n1 (some centres unmarked) [Compound I-28, 7-[(Z)-2-(2-aminothiazol-4-yl)-2-(allyloxyimino)acetamido]-3-[1-cyclopropyl-6-fluoro-7-(2-methylpiperazinyl)quinolinium-4-yl]thiomethyl-3-cephem-4-carboxylate]
–	–	–	–	–	0.78 (≈ 1.1 µM)	0.78 (≈ 1.1 µM)	0.39 (≈ 0.549 µM)	0.2 (≈ 0.281 µM)	0.78 (≈ 1.1 µM)	3.13 (≈ 4.4 µM)	–	C#CCO/N=C(\C(=O)NC1C(=O)N2C(C(=O)[O-])=C(CSc3cc[n+](C)c4cc(N5CCN(C)CC5)c(F)cc34)CSC12)c1csc(N)n1 (centres unmarked) [Compound I-38, 7-[(Z)-2-(2-aminothiazol-4-yl)-2-(propargyloxyimino)acetamido]-3-[1-methyl-6-fluoro-7-(N-methylpiperazinyl)quinolinium-4-yl]thiomethyl-3-cephem-4-carboxylate]

Further lines, the compound ahead of its results:

Structure (SMILES)	Antibacterial Activity (MIC) [1] [µg/mL]	Antibacterial Activity (MIC) [2] [µg/mL]	Antibacterial Activity (MIC) [3] [µg/mL]	Antibacterial Activity (MIC) [4] [µg/mL]	Antibacterial Activity (MIC) [5] [µg/mL]	MIC [1] [µg/mL]	MIC [2] [µg/mL]	MIC [3] [µg/mL]	MIC [4] [µg/mL]	MIC [5] [µg/mL]	MIC [6] [µg/mL]	Antibacterial Activity (MIC) [6] [µg/mL]
C#CCO/N=C(\C(=O)NC1C(=O)N2C(C(=O)[O-])=C(CSc3cc[n+](C)c4cc(N5CCNCC5)c(F)cc34)CS[C@H]12)c1csc(N)n1 (some centres unmarked) [Compound I-37, 7-[(Z)-2-(2-aminothiazol-4-yl)-2-(propargyloxyimino)acetamido]-3-(1-methyl-6-fluoro-7-piperazinylquinolinium-4-yl)thiomethyl-3-cephem-4-carboxylate]	–	–	–	–	–	0.2 (≈ 0.287 µM)	0.39 (≈ 0.56 µM)	0.78 (≈ 1.12 µM)	0.2 (≈ 0.287 µM)	0.2 (≈ 0.287 µM)	0.78 (≈ 1.12 µM)	–
C#CCO/N=C(\C(=O)NC1C(=O)N2C(C(=O)[O-])=C(CSc3cc[n+](C)c4cc(N5CCN(CC)CC5)c(F)cc34)CSC12)c1csc(N)n1 (centres unmarked) [Compound I-39]	–	–	–	–	–	0.2 (≈ 0.276 µM)	0.39 (≈ 0.538 µM)	0.2 (≈ 0.276 µM)	0.2 (≈ 0.276 µM)	0.2 (≈ 0.276 µM)	0.78 (≈ 1.08 µM)	–
C#CCO/N=C(\C(=O)NC1C(=O)N2C(C(=O)[O-])=C(CSc3cc[n+](C)c4cc(N5CCNCC5C)c(F)cc34)CS[C@H]12)c1csc(N)n1 (some centres unmarked) [Compound I-40, 7-[(Z)-2-(2-aminothiazol-4-yl)-2-(propargyloxyimino)acetamido]-3-[1-methyl-6-fluoro-7-(2-methylpiperazinyl)quinolinium-4-yl]thiomethyl-3-cephem-4-carboxylate]	0.2	0.39	0.1	0.2	0.2	–	–	–	–	–	–	0.78
